Data set [1] concerns E. coli MC4100. Nature of the data set: Bacterial growth and viability, E. coli MC4100. The data set is classed as cell-based, Escherichia coli. As for the experimental part:
(§1) E. coli MC4100, MC4100ΔclpB, dnaK103, and dnaK756 strains were used to determine an influence of DBeQ on bacterial growth and viability. Bacteria were maintained in the LB media, and in the case of the MC4100ΔclpB strain, LB was supplemented with 30 μg/ml kanamycin. All experiments were initiated by preparing overnight cultures inoculated from single colonies and grown at 37 °C. The dnaK103 and dnaK756 overnight cultures were grown at 30 °C. On the following day, the cultures were diluted 100-fold in 10 ml of LB without antibiotics and incubated at 37 °C. The culture optical density was monitored at 600 nm. When absorbance at 600 nm reached 0.4, the culture was divided into 1-ml aliquots and supplemented with 10 μl of DMSO or different concentrations of DBeQ in DMSO. The samples were immediately transferred into an incubator/shaker at temperature 37, 45, or 50 °C. Bacteria were cultured for up to 4 h with shaking (200 RPM). At specific time points, 100 μl of each culture was withdrawn and serially diluted in sterile 0.9% NaCl up to 10^6-fold dilution. To estimate the number of viable cells, 5 μl or 10 μl of the diluted cultures was spread on the LB-agar plate without an antibiotic. After a complete adsorption of liquid on the LB-agar surface, the plates were incubated overnight at 37 °C. On the following day, the bacterial colonies were counted and the colony-forming units/ml were calculated.

On the set-up of data set [2]: method as in PMID 21383145. The settings on record: cited from earlier work.
Data set [3] has as its target T1, DnaK (Escherichia coli, UniProt P0A6Y8).
T1 construct: full-length E. coli DnaK (residues 1–638); made in house; host or cells: E. coli BL21(DE3)
The data set can be described thus: DnaK binding to FITC-B2 peptide, fluorescence anisotropy. To be noted: FITC-B2 20 nM, increasing DBeQ. The procedure: To monitor interactions between the peptide B2 and DnaK, the DnaK stock was diluted in buffer C (50-mM Tris-HCl, pH 7.4, 20-mM MgCl2, 1-mM EDTA, 0.5-mM TCEP) to a final concentration of 1 μM. DBeQ solutions in DMSO (20 μl) were mixed with 372 μl of 1-μM DnaK. After 10 min of incubation at room temperature, the samples were supplemented with 8 μl of 1-μM FITC-B2 in buffer C (FITC-Ahx-[…]-NH2) ([51]). The FITC-B2 sample without DnaK was used as a control. After a 30-min incubation at room temperature, fluorescence anisotropy of FITC-B2 was measured with a PerkinElmer LS55 (λexc = 485 nm (slit: 15 nm), λem = 521 (slit: 20 nm)).

The target of data set [4] is T2, ClpB W462F (Escherichia coli, UniProt P63284, W462F).
T2 construct: made in house
T2 sequence (P63284 whole entry W462F, looked up): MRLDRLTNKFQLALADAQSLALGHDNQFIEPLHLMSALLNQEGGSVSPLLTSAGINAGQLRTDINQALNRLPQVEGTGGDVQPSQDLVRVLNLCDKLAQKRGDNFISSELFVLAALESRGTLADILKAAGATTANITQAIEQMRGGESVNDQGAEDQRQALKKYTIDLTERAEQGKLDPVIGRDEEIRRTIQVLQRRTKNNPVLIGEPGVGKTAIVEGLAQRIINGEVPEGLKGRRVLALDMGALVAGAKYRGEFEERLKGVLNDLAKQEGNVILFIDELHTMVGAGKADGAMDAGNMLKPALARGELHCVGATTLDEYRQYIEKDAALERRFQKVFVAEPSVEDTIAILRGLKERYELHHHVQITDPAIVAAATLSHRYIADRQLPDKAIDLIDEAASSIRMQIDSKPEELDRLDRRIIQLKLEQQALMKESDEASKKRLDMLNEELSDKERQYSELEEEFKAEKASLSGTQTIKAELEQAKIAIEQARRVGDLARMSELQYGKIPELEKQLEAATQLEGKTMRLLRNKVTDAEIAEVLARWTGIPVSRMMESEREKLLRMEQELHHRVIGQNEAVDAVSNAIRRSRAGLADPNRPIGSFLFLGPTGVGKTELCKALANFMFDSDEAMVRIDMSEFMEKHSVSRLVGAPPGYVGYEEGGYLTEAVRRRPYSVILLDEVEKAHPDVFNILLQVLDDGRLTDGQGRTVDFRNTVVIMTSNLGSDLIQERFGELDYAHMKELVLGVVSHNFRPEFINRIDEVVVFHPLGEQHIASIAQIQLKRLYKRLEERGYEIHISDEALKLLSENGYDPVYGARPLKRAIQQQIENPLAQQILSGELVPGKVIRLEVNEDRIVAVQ
The data set can be described thus: Surface plasmon resonance, immobilized ClpB W462F. The data set is classed as binding. The procedure:
(§2) ClpB, DnaK, and the NBD of DnaK were extensively dialyzed against the SPR buffer (20-mM Hepes, pH 7.4, 150-mM NaCl, 20-mM MgCl2, 1-mM EDTA, 1-mM DTT). After dialysis, the protein concentration was determined by the Bradford method. The DBeQ–protein interactions were studied using a Biacore T200 instrument (GE Healthcare) at 25 °C. The proteins were diluted to 300 μg/ml in 10-mM sodium acetate buffer (pH 5 for ClpB DnaK or pH 4 for NBD) and immobilized on HC1500M sensor chips (Xantec) by standard amine coupling chemistry as described previously ([70]). A reference flow cell was created by ethyl(dimethylaminopropyl) carbodiimide/N-hydroxysuccinimide activation followed by quenching with 1 M ethanolamine (pH 9.0). Solvent correction curves were obtained at the beginning and end and after every 50 injection cycles by injecting varying DMSO concentrations (4.0, 4.4, 4.6, 4.8, 5.0, 5.2, 5.4, and 5.9% [v/v]). All experiments were performed using a flow rate of 30 μl/min.
(§3) Binding isotherms were obtained with the ligand diluted to different concentrations in the SPR running buffer HBSMTD (20-mM Hepes, pH 7.4, 140-mM NaCl, 20-mM MgCl2, 5% (v/v) DMSO, 0.005% (v/v) Tween-20). Replicate injections were performed for all samples, and a buffer-only injection was performed for every 12 injection cycles. To test the structural integrity of ClpB after immobilization on the sensor chips, we performed control titrations with ATPγS and adenosine. The dissociation constants determined from those experiments were ∼20 μM for ATPγS and ∼2 mM for adenosine. […] Moreover, the immobilized ClpB discriminated between a nucleotide analog and a nucleoside, which indicated an adequate structural integrity of ClpB on the sensor chips.
(§4) The resulting sensorgrams were analyzed using Biacore T200 Evaluation Software v3.0 according to the following procedure. Solvent correction curves were generated and applied to all data sets, and all sensorgrams were double-referenced by subtracting the most recent buffer blank injection. […]

Data set [5] has as its target T3, DnaK NBD (Escherichia coli, UniProt P0A6Y8).
T3 construct: the NBD of E. coli DnaK (residues 1–388); His-tag (pET28a) (C); made in house; host or cells: E. coli BL21(DE3)
Nature of the data set: DnaK NBD ATPase activity assay. Format: biochemical. To be noted: 100 µM DBeQ, 37 °C. The procedure:
To determine the ATPase activity of DnaK, 18 μl of DnaK solution or DnaK NBD solution prepared in buffer C was mixed with 1 μl of the investigated compounds or DMSO as a control. Samples without DnaK were used as control blanks. The samples were preincubated for 10 min at 37 °C. The reaction was initiated by adding 1 μl of 100-mM ATP bringing the final concentration of DnaK to 1.1 μM or DnaK NBD to 3.4 μM. The samples were incubated at 37 °C for 70 min for DnaK or 75 min for NBD. The concentration of inorganic phosphate produced from ATP in the presence of DnaK was determined as described above for ClpB.

The subject of data set [6] is E. coli dnaK103. Nature of the data set: Bacterial viability, dnaK103. The data set is classed as cell-based, Escherichia coli. The settings on record: 45 °C. As for the experimental part: as §1, with “After a complete adsorption of liquid on the LB-agar surface, the plates were incubated overnight at 37 °C.” left out
Data set [7] deals with T4, ClpB W543F (Escherichia coli, UniProt P63284, W543F).
T4 construct: made in house
T4 sequence (P63284 whole entry W543F, looked up): as the sequence (P63284 whole entry W462F, looked up) above, with F462W, W543F counted along it
The data set can be described thus: Surface plasmon resonance, immobilized ClpB W543F. The data set is classed as binding. The procedure: as §2, §3, §4

Data set [8] has as its system p97. Details: method as in PMID 25685910. To be noted: cited from earlier work.

“Also recorded” adds a separate entry of the source.

The values that follow come from paper PMC7948422, “Repurposing p97 inhibitors for chemical modulation of the bacterial ClpB–DnaK bichaperone system” (The Journal of Biological Chemistry, 2020).

T1 sequence (P0A6Y8 whole entry, the tested form may be a part): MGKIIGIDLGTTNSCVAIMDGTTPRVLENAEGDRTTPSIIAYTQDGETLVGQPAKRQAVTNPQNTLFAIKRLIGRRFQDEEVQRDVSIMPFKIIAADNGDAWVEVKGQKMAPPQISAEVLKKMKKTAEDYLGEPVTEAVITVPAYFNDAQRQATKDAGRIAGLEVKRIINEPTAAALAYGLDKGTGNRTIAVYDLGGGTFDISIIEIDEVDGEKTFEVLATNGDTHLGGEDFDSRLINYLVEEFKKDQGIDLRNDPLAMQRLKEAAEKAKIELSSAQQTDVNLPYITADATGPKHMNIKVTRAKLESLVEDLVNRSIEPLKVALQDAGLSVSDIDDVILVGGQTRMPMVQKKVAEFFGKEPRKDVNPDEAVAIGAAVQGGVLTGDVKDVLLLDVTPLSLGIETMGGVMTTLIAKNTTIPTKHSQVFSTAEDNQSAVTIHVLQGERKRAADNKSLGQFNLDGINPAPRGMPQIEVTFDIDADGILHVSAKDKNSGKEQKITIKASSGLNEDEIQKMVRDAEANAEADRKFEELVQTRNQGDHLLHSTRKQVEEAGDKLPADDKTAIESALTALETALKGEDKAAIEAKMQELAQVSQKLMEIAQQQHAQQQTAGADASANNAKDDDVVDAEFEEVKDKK
T3 sequence (P0A6Y8 1-388): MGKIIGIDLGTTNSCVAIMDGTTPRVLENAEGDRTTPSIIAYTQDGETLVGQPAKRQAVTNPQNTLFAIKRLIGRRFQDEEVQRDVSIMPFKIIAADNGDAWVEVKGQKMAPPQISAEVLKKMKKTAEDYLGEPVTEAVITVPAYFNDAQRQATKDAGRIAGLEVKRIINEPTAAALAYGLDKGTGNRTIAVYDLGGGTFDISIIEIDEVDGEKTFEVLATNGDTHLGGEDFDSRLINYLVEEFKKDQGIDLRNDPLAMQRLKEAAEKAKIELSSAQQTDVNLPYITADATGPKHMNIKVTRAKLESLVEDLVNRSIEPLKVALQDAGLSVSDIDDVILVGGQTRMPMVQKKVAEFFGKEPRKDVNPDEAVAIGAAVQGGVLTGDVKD

`c1ccc(CNc2nc(NCc3ccccc3)c3ccccc3n2)cc1` [DBeQ, N^2,N^4-dibenzylquinazoline-2,4-diamine]: the “effect on growth of E. coli” value in data set [1] (MC4100, 37 °C) is listed as “suppressed the growth; also recorded: inhibited the growth”. In addition, the “effect on viability of E. coli under heat shock” value in data set [1] (MC4100, 45 °C) is listed as “exacerbated by heat shock; also recorded: strongly inhibited”. In addition, the “effect on viability of E. coli at severe heat shock” value in data set [1] (MC4100, 50 °C) is “lost viability at the lowest DBeQ concentrations tested”. In addition, the “solubility in aqueous buffers” value in data set [2] was “limited”. Besides, the “suppression of DnaK binding to substrate-mimicking peptide” value in data set [3] is “did not detect”. The compound further came in with a dissociation constant Kd in data set [4] of 61.4 ± 4.7 µM. Further, in data set [4] (SPR), the “Bmax (SPR signal at saturation), ClpB W462F” value is 1.08 ± 0.03 and the “Hill coefficient, ClpB W462F” value is given as 2.4 ± 0.4. Further, in data set [5], the “effect on ATPase activity of isolated DnaK NBD” value was “did not inhibit”. The “effect on viability of dnaK103” value in data set [6] was “suppressed viability”. The compound further gave a Kd in data set [7] of 59.1 ± 4.1 µM. In addition, in data set [7] (SPR), the “Bmax (SPR signal at saturation), ClpB W543F” value is reported as 1.07 ± 0.03 and the “Hill coefficient, ClpB W543F” value is on record as 2.4 ± 0.4. In addition, the IC50 in data set [8] is around 3 µM.
